Values quoted from earlier work, collected in patent US20090053307A1, “IMMEDIATE-RELEASE T[…] FOR IMPROVED ORAL ABSORPTION OF 7-[(E)]-T-BUTY-LOXYMINOMETHYL] CAMPTOTHECIN” (SIGMA-TAU INDUSTRIE FAR[…] S.P.A., priority 2005, published 2009).

System: large cell pulmonary carcinoma (not SCLC, H-460)
Conditions: H-460 tumour line; from W097/31003

For `CCC1(O)C(=O)OCc2c1cc1n(c2=O)Cc2c-1nc1ccccc1c2C#N` (stereo not shown) [CPT 83], the “activity compared with reference compound topotecan” value is given as “more active than topotecan”.
